Laboratory results: patent US7868176B2, “Salts of N-(4-fluorobenzyl)-N-(1-methylpiperidin-4-y1)-N′-(4-(2-methylpropyloxy)phenylmethyl)carbamide and their preparation” (ACADIA Pharmaceuticals, Inc., priority 2004, dated 2011)
Values after ≈ are worked out from the molar mass of the structure shown. Where a name gives a salt, the structure may show the parent alone. One block for each molecule: values may come before it.

How the values were obtained:
[1] = Approximate solubility in water; assay type: physicochemical
Description: The limit value of completely dissolved amount was determined. Determination of solubilities below 20 mg/l occurred with stirring suspensions in water, filtering off the excess, and measuring of the amount of substance in the filtrate.

[2] = Storage stability of the crystalline salt (HPLC area, Raman, appearance); assay type: physicochemical; conditions: for Storage stability (general statement): crystalline forms disclosed; for HPLC area reference value: reference value against which the HPLC area after 1 week at 60° C./75% r.h. is compared
Description: FT-Raman Spectroscopy: Bruker RFS100. Nd:YAG 1064 nm excitation, 100 mW laser power, Ge-detector, 64 scans, range 25-3500 cm^−1, […].
HPLC: HPLC measurement were carried out with a HP LC1090M, Column Symmetry C18, 3.0·150 mm.

[3] = approximate, double distilled water added stepwise to 5 mg substance, sonification
[4] = storage for 1 week at 100° C. in a closed ampoule
[5] = stored 1 week at 60° C. and about 75% r.h. in a closed container
[6] = stored 1 week at 60° C. and about 75% r.h. in an open container

SMILES: CC(C)COc1ccc(CNC(=O)N(Cc2ccc(F)cc2)C2CCN(C)CC2)cc1 [Example 5, N-(4-fluorobenzyl)-N-(1-methylpiperidin-4-yl)-N′-(4-(2-methylpropyloxy)phenylmethyl)carbamide malate]
Solubility in water [1, 3]: > 500 mg/mL

SMILES: CC(C)COc1ccc(CNC(=O)N(Cc2ccc(F)cc2)C2CCN(C)CC2)cc1.O=C(O)/C=C/C(=O)O [Example 3, N-(4-fluorobenzyl)-N-(1-methylpiperidin-4-yl)-N′-(4-(2-methylpropyloxy)phenylmethyl)carbamide fumarate]
Solubility in water [1, 3]: > 500 mg/mL | HPLC area reference value [2]: 99.4% | Changes on storage detected with Raman spectroscopy ([2]; storage at 75% r.h. in an open container): changes of the substance after 3 days | HPLC area after storage [2, 6]: 96.7% | State of crystalline powder after storage [2, 6]: substantially unchanged

SMILES: CC(C)COc1ccc(CNC(=O)N(Cc2ccc(F)cc2)C2CCN(C)CC2)cc1 [Example 6, N-(4-fluorobenzyl)-N-(1-methylpiperidin-4-yl)-N′-(4-(2-methylpropyloxy)phenylmethyl)carbamide phosphate]
Solubility in water [1, 3]: > 250 mg/mL

Results, then the molecule that gave them:

Solubility in water [1, 3]: 4 mg/mL (≈ 9.36 mM) | Storage stability (general statement) [2]: good storage stability | HPLC area reference value [2]: 96.8% | HPLC area after storage [2, 4]: 97.4% | State of crystalline product after storage [2, 4]: does not decompose | HPLC area after storage [2, 5]: 97.4% | State of crystalline powder after storage [2, 5]: remains a white powder
SMILES: CC(C)COc1ccc(CNC(=O)N(Cc2ccc(F)cc2)C2CCN(C)CC2)cc1 [Example 9, N-(4-fluorobenzyl)-N-(1-methylpiperidin-4-yl)-N′-(4-(2-methylpropyloxy)phenylmethyl)carbamide edisylate]

Solubility in aqueous systems (general statement) ([1]; aqueous systems): very soluble | solubility at 2 min ([1]; thermodynamic from solid, approximate, double distilled water added stepwise to 5 mg substance, sonification): ~14 mg/mL | Storage stability (general statement) [2]: good storage stability | HPLC area reference value [2]: 99.9% | HPLC area after storage [2, 6]: 99.4% | State of crystalline powder after storage [2, 6]: substantially unchanged
SMILES: CC(C)COc1ccc(CNC(=O)N(Cc2ccc(F)cc2)C2CCN(C)CC2)cc1 [Example 2, N-(4-fluorobenzyl)-N-(1-methylpiperidin-4-yl)-N′-(4-(2-methylpropyloxy)phenylmethyl)carbamide citrate]

Solubility in water [1, 3]: > 500 mg/mL
SMILES: CC(C)COc1ccc(CNC(=O)N(Cc2ccc(F)cc2)C2CCN(C)CC2)cc1 [Example 4, N-(4-fluorobenzyl)-N-(1-methylpiperidin-4-yl)-N′-(4-(2-methylpropyloxy)phenylmethyl)carbamide maleate]

Solubility in water [1, 3]: > 500 mg/mL
SMILES: CC(C)COc1ccc(CNC(=O)N(Cc2ccc(F)cc2)C2CCN(C)CC2)cc1 [Example 7, N-(4-fluorobenzyl)-N-(1-methylpiperidin-4-yl)-N′-(4-(2-methylpropyloxy)phenylmethyl)carbamide succinate]
